Experimental data: US4549023A, “3-Aminoindazole derivatives” (priority 1980, dated 1985)
Read-outs that look alike come from different tables or passages of the source.

Experiments:
[1] = tested on: carrageenin edema in rat's paw; experiment: Carrageenin Edema Test in Rat's Paw (anti-inflammatory activity); format: in vivo, Female Wistar rats; settings: for inhibition in vivo at 100 mg/kg: Rattus norvegicus, hydrochloric acid salts; for Inhibition values compared with comparative compounds: Table 1, 100 mg/kg
Protocol: A standard method of Carrageenin Edema Test in Rat's Paw described in C. A. Winter et al., Proc. Soc. Exp. Biol. Med., 111, 544 (1962) was employed.
[…] One hour later, the pad of a hind paw of the rat was injected with 0.1 ml of 1% aqueous carrageenin solution. The volume of the paw was measured both before the injection of carrageenin and three hours after the injection.
The edema inhibition percentage of the test compound was calculated from the ratio of the increase in the volume of the affected paw of the test animals to the increase in the volume of the affected paw of the controls.
The anti-inflammatory activity of the 3-aminoindazole derivative hydrochloric acid salts of this invention was measured.
The anti-inflammatory activity of the 3-aminoindazole derivative hydrochloric acid salts obtained by Examples 1-49 of this invention was measured by the standard method of carrageenin edema test. In these tests, the amount of the administration of the salts was 100 mg/kg. The results are shown in Table 17 (Inhibition (%) was measured three hours after the injection).

[2] = Acute toxicity (LD50), intravenous injection; settings: mouse, in vivo, male ddY-strain mice, read-out: LD50, Table 19
Protocol: Acute toxicity was measured by an ordinary method described in Finney DJ Probit Analysis Cambridge University Press 48, (1952). Ddy mice weighing about 18 g on average, each group consisting of 10 animals, were […] injected with the physiological salt solution containing the test compound. The amount of the test compound administered was varied in 5-8 groups. Three days after the administration, dead animals were counted in each group. The amount of the test compound killing half the number of the animals (LD50) was calculated from the results.
The acute toxicity of the 3-aminoindazole derivatives and their hydrochloric acid salts obtained by Examples 1-49 of this invention was measured by giving male ddY-strain mice an intravenous injection.

[3] = po, 3 h, 100 mg/kg, measured three hours after the injection, read-out: Inhibition (carrageenin edema), Table 17
[4] = 100 mg/kg, oral, 3 h after carrageenin, read-out: Inhibition (carrageenin edema), Table 1

| Compound | inhibition in vivo at 100 mg/kg [1, 3] [%] | LD50 at 72 h [2] [mg/kg] | other results |
| --- | --- | --- | --- |
| c1ccc2c(NCCN3CCCCC3)n[nH]c2c1 [Compound (1), 3-(2-piperidinoethylamino)indazole] | 48 | 146 |  |
| c1ccc2c(NCCCCCCN3CCCCC3)n[nH]c2c1 [Compound (3), 3-(6-piperidinohexylamino)indazole] | 30 | 143 |  |
| c1ccc2c(NCCCN3CCCC3)n[nH]c2c1 [Compound (4), 3-(3-pyrrolidinopropylamino)indazole] | 30 | 97 | inhibition in vivo at 100 mg/kg [1, 4]: 30%; Inhibition values compared with comparative compounds [1]: higher than that of the compound C-1 |
| c1ccc2c(NCCCN3CCCCCC3)n[nH]c2c1 [Compound (5), 3-(3-homopiperidinopropylamino)indazole] | 59 | 175 |  |
| CC1CCCC(C)N1CCCNc1n[nH]c2ccccc12 (centres unmarked) [Compound (7), 3-{3-(2,6-dimethylpiperidino)propylamino}indazole] | 35 | 143 |  |
| OC1CCN(CCCNc2n[nH]c3ccccc23)CC1 [Compound (8), 3-{3-(4-hydroxypiperidino)propylamino}indazole] | 47 | 358 |  |
| ClC1CCN(CCCNc2n[nH]c3ccccc23)CC1 [Compound (9), 3-{3-(4-chloropiperidino)propylamino}indazole] | 68 | 347 |  |
| CCCCN(CCCC)CCCNc1n[nH]c2ccccc12 [Compound (11), 3-(3-di-n-butylaminopropylamino)indazole] | 65 | 115 |  |
| CN(C)CCNc1n[nH]c2ccccc12 [Compound (12), 3-(2-dimethylaminoethylamino)indazole] | 52 | 334 |  |
| CN1CCN(CCCNc2n[nH]c3ccccc23)CC1 [Compound (13), 3-{3-(4-methylpiperazino)propylamino}indazole] | 30 | 359 | inhibition in vivo at 100 mg/kg [1, 4]: 30%; Inhibition values compared with comparative compounds [1]: higher than that of the compound C-1 |
| CC(CCNc1n[nH]c2ccccc12)N1CCCCC1 (centres unmarked) [Compound (14), 3-(3-piperidinobutylamino)indazole] | 55 | 95 |  |
| CC(C)CC(CCNc1n[nH]c2ccccc12)N1CCCCC1 (centres unmarked) [Compound (15), 3-(5-methyl-3-piperidinohexylamino)indazole] | 42 | 144 |  |
| CCN(CC)C(C)CCNc1n[nH]c2ccccc12 (centres unmarked) [Compound (16)] | 63 | 184 |  |
| Nc1nn(CCN2CCCCC2)c2ccccc12 [Compound (17), 1-(2-piperidinoethyl)-3-aminoindazole] | 47 | 143 |  |
| Nc1nn(CCCCCCN2CCCCC2)c2ccccc12 [Compound (19), 1-(6-piperidinohexyl)-3-aminoindazole] | 29 | 144 |  |
| Nc1nn(CCCN2CCCC2)c2ccccc12 [Compound (20), 1-(3-pyrrolidinopropyl)-3-aminoindazole] | 29 | 98 |  |
| Nc1nn(CCCN2CCCCCC2)c2ccccc12 [Compound (21), 1-(3-homopiperidinopropyl)-3-aminoindazole] | 58 | 184 |  |
| CC1CCCC(C)N1CCCn1nc(N)c2ccccc21 (centres unmarked) [Compound (23), 1-{3-(2,6-dimethylpiperidino)propyl}-3-aminoindazole] | 34 | 152 |  |

| Compound | inhibition in vivo at 100 mg/kg [1, 3] [%] | LD50 at 72 h [2] [mg/kg] | other results |
| --- | --- | --- | --- |
| Nc1nn(CCCN2CCC(O)CC2)c2ccccc12 [Compound (24), 1-{3-(4-hydroxypiperidino)propyl}-3-aminoindazole] | 46 | 367 |  |
| Nc1nn(CCCN2CCC(Cl)CC2)c2ccccc12 [Compound (25), 1-{3-(4-chloropiperidino)propyl}-3-aminoindazole] | 59 | 356 |  |
| CCN(CC)CCCn1nc(N)c2ccccc21 [Compound (26), 1-(3-diethylaminopropyl)-3-aminoindazole] | 61 | 243 |  |
| CCCCN(CCCC)CCCn1nc(N)c2ccccc21 [Compound (27), 1-(3-di-n-butylaminopropyl)-3-aminoindazole] | 57 | 124 |  |
| CC(CCn1nc(N)c2ccccc21)N1CCCCC1 (centres unmarked) [Compound (29), 1-(3-piperidinobutyl)-3-aminoindazole] | 46 | 104 |  |
| CC(C)CC(CCn1nc(N)c2ccccc21)N1CCCCC1 (centres unmarked) [Compound (30), 1-(5-methyl-3-piperidinohexyl)-3-aminoindazole] | 35 | 153 |  |
| CC(C)CC(CCn1nc(N)c2ccccc21)N(C)C (centres unmarked) [Compound (31), 1-(3-dimethylamino-5-methylhexyl)-3-aminoindazole] | 28 | 154 |  |
| CN1CCN(CCCn2nc(N)c3ccccc32)CC1 [Compound (32), 1-{3-(4-methylpiperazino)propyl}-3-aminoindazole] | 27 | 368 |  |
| CCN(CC)CCCNc1nn(CCCN(CC)CC)c2ccccc12 [Compound (33), 1-(3-diethylaminopropyl)-3-(3-diethylaminopropylamino)indazole] | 29 | 238 | inhibition in vivo at 100 mg/kg [1, 4]: 29% |
| CCN(CC)CCCn1nc(NCCCN2CCCCC2)c2ccccc21 [Compound (34), 1-(3-diethylaminopropyl)-3-(3-piperidinopropylamino)indazole] | 28 | 172 | inhibition in vivo at 100 mg/kg [1, 4]: 28% |
| CCN(CC)CCCn1nc(NCCCCCCN2CCCCC2)c2ccccc21 [Compound (35)] | 21 | 193 |  |
| CCCCN(CCCC)CCCNc1nn(CCCN(CC)CC)c2ccccc12 [Compound (36), 1-(3-diethylaminopropyl)-3-(3-di-n-butylaminopropylamino)indazole] | 31 | 179 |  |
| CCN(CC)CCCn1nc(NCCC(C)N2CCCCC2)c2ccccc21 (centres unmarked) [Compound (37), 1-(3-diethylaminopropyl)-3-(3-piperidinobutylamino)indazole] | 27 | 169 |  |
| CCCNc1n[nH]c2ccccc12 [Compound C-1, 3-(propylamino)indazole, reference compound] |  |  | inhibition in vivo at 100 mg/kg [1, 4]: 7% |
| CCCn1nc(N)c2ccccc21 [Compound C-2, 1-propyl-3-aminoindazole, reference compound] |  |  | inhibition in vivo at 100 mg/kg [1, 4]: 7% |
| Nc1nn(CCc2ccccc2)c2ccccc12 [Compound C-3, 1-(2-phenylethyl)-3-aminoindazole, reference compound] |  |  | inhibition in vivo at 100 mg/kg [1, 4]: 7% |
| CN(C)CCNc1nn(-c2ccccc2)c2ccccc12 [Compound C-5, 1-phenyl-3-(2-dimethylaminoethylamino)indazole, reference compound] |  |  | Inhibition (carrageenin edema), Table 2 ([1]; 25 mg/kg, oral): 15%; Inhibition (carrageenin edema), Table 2 ([1]; 50 mg/kg, oral): 18%; Inhibition (carrageenin edema), Table 2 ([1]; 100 mg/kg, oral): 55% |
